Test results reported in paper PMC7539012, “Hyperphosphorylated tau aggregation and cytotoxicity modulators screen identified prescription drugs linked to Alzheimer's disease and cognitive functions” (Scientific Reports, 2020).
Where a name gives a salt, the structure may show the parent alone. Where a SMILES comes first, the peptide text is derived from it. [ ]: non-standard residue; d: D form. The star is where a group is joined. Sta = CC(C)C[C@H](N)[C@@H](O)CC(=O)O; Isovaleryl = CC(C)CC(=O)*

Test system: T1, 1N4R p-tau
T1 construct: made in house; host or cells: E. coli (PIMAX system)
Assay: p-tau aggregation modulator screen of 1280-compound library (ThS fluorescence net change over 16 h)
Type: biochemical
Design: key to PTAI>2SD: *: PTAI>2SD
Details: not given

Compared with CC(C)c1c(CN(C)C(C)Cc2ccccc2)n(C)n(-c2ccccc2)c1=O (stereo not shown) [Famprofazone], CC(COc1ccccc1)N(CCCl)Cc1ccccc1 (stereo not shown) [Phenoxybenzamine hydrochloride] is higher in ThS net change: 477 for the first, 560 for the second.

Going from C[C@H](N[C@@H](CCc1ccccc1)C(=O)O)C(=O)N1CCC[C@H]1C(=O)O.O.O [Enalaprilat dihydrate] to CN(C)C(=O)C(CCN1CCC(O)(c2ccc(Cl)cc2)CC1)(c1ccccc1)c1ccccc1 [Loperamide hydrochloride], the ThS net change falls from 438 to 326.

Compared with CN[C@H](CC(C)C)C(=O)N[C@H]1C(=O)N[C@@H](CC(N)=O)C(=O)N[C@H]2C(=O)N[C@H]3C(=O)N[C@H](C(=O)N[C@H](C(=O)O)c4cc(O)cc(O)c4-c4cc3ccc4O)[C@H](O)c3ccc(c(Cl)c3)Oc3cc2cc(c3O[C@@H]2O[C@H](CO)[C@@H](O)[C@H](O)[C@H]2O[C@H]2C[C@](C)(N)[C@H](O)[C@H](C)O2)Oc2ccc(cc2Cl)[C@H]1O [Vancomycin hydrochloride], O=C(c1ccc(OCCN2CCCCC2)cc1)c1c(-c2ccc(O)cc2)sc2cc(O)ccc12 [Raloxifene hydrochloride] is lower in ThS net change: 408 for the first, 133 for the second.

First: CCN(CC)Cc1cc(Nc2ccnc3cc(Cl)ccc23)ccc1O.Cl.Cl.O.O [Amodiaquin dihydrochloride dihydrate]
Second: CCC1(c2ccc(N)cc2)CCC(=O)NC1=O (stereo not shown) [Glutethimide, para-amino]
The ThS net change of the first is lower: 309 for the first, 340 for the second.

C[C@@H]1C[C@H]2[C@@H]3C[C@H](F)C4=CC(=O)C=C[C@]4(C)[C@@]3(F)[C@@H](O)C[C@]2(C)[C@@]1(O)C(=O)COC(=O)C(C)(C)C [Flumethasone pivalate] was tested, and the ThS net change was 476.

With O=C(c1ccc(OCCN2CCCCC2)cc1)c1c(-c2ccc(O)cc2)sc2cc(O)ccc12 [Raloxifene hydrochloride] the “PTAI>2SD” value was “*”.

Same assay, conditions: 30 µM compound, 6 µM p-tau, 16 h

NCCc1ccc(O)c(O)c1 [Dopamine, reference compound] was tested, and the “effect on p-tau aggregation in pilot screen” value was “none of them affected p-tau aggregation”.
In the case of CC/C(=C(\c1ccccc1)c1ccc(OCCN(C)C)cc1)c1ccccc1 [tamoxifen, reference compound], the “effect on p-tau aggregation in pilot screen” value is reported as “none of them affected p-tau aggregation”.

Same assay, conditions: 1280-compound library screen; ThS fluorescence net change over 16 h

First: Oc1ncnc2[nH]ncc12 [Allopurinol]
Second: NCCc1ccc(O)c(O)c1 [Dopamine hydrochloride]
The ThS net change of the first is lower: 396 for the first, 404 for the second.

First: OC(CCN1CCCCC1)(c1ccccc1)C1CC2C=CC1C2 (stereo not shown) [Biperiden hydrochloride]
Second: O=c1[nH]c2ccccc2n1CCCN1CCC(n2c(=O)[nH]c3cc(Cl)ccc32)CC1 [Domperidone]
The ThS net change of the first is lower: 380 for the first, 392 for the second.

First: CC(C)[N+](C)(CCC(C(N)=O)(c1ccccc1)c1ccccc1)C(C)C [Isopropamide iodide]
Second: CC(C)NCC(O)COc1ccc(COCCOC(C)C)cc1 (stereo not shown) [Bisoprolol fumarate]
The ThS net change of the first is lower: 395 for the first, 409 for the second.

Compared with NCCCNCCSP(=O)(O)O [Amifostine], CCCC(CCC)C(=O)O [Valproic acid] is higher in ThS net change: 392 for the first, 403 for the second.

First: CC(=O)[C@H]1CC[C@H]2[C@@H]3C[C@H](C)C4=CC(=O)CC[C@]4(C)[C@H]3[C@@H](O)C[C@]12C [Medrysone]
Second: CC#C[C@]1(O)CC[C@H]2[C@@H]3CCC4=CC(=O)CCC4=C3[C@@H](c3ccc(N(C)C)cc3)C[C@@]21C [Mifepristone]
The ThS net change of the first is higher: 388 for the first, 382 for the second.

First: Cn1c(=O)c2[nH]cnc2n(C)c1=O [Theophylline monohydrate]
Second: Cc1ncc([N+](=O)[O-])n1CC(O)CCl (stereo not shown) [Ornidazole]
The ThS net change of the first is higher: 398 for the first, 383 for the second.

Compared with COc1cc2nc(N(C)CCCNC(=O)C3CCCO3)nc(N)c2cc1OC (stereo not shown) [Alfuzosin hydrochloride], COc1c2occc2c(OC)c2c(=O)cc(C)oc12 [Khellin] is lower in ThS net change: 391 for the first, 389 for the second.

Compared with [H]/N=C(/NCCCCC)N/N=C/c1c[nH]c2ccc(OC)cc12 [Tegaserod maleate], CCCCNc1ccc(C(=O)OCCN(C)C)cc1.Cl [Tetraca?ne hydrochloride] is higher in ThS net change: 379 for the first, 401 for the second.

First: NS(=O)(=O)c1cc2c(cc1Cl)NCNS2(=O)=O [Hydrochlorothiazide]
Second: CN(CCOc1ccc(NS(C)(=O)=O)cc1)CCc1ccc(NS(C)(=O)=O)cc1 [Dofetilide]
The ThS net change of the first is lower: 384 for the first, 388 for the second.

Going from CCCC(=O)Nc1ccc(OCC(O)CNC(C)C)c(C(C)=O)c1 (stereo not shown) [Acebutolol hydrochloride] to O=C(CCCCCCC(=O)Nc1ccccc1)NO [Vorinostat], the ThS net change rises from 381 to 398.

First: COc1ccccc1OCC(O)COC(N)=O (stereo not shown) [Methocarbamol]
Second: O=C(O)c1cccnc1 [Niacin]
The ThS net change of the first is higher: 409 for the first, 391 for the second.

Compound CC(C)CC(=O)N[C@H](C(=O)N[C@H](C(=O)N[C@@H](CC(C)C)[C@@H](O)CC(=O)N[C@@H](C)C(=O)N[C@@H](CC(C)C)[C@@H](O)CC(=O)O)C(C)C)C(C)C [Pepstatin A] (Isovaleryl-VV[Sta]A[Sta]-OH) has a ThS net change of 389.

Same assay, conditions: 1280-compound library screen; […]

First: C#C[C@]1(O)CC[C@H]2[C@@H]3CCC4=CC(=O)CCC4=C3C=C[C@@]21CC [Gestrinone]
Second: CC(=O)O[C@H]1C[C@H](O[C@H]2[C@@H](O)C[C@H](O[C@H]3[C@@H](O)C[C@H](O[C@H]4CC[C@@]5(C)[C@H](CC[C@@H]6[C@@H]5C[C@@H](O)[C@]5(C)[C@@H](C7=CC(=O)OC7)CC[C@]65O)C4)O[C@@H]3C)O[C@@H]2C)O[C@H](C)[C@H]1O[C@@H]1O[C@H](CO)[C@@H](O)[C@H](O)[C@H]1O [Lanatoside C]
The ThS net change of the first is lower: 397 for the first, 411 for the second.

Compared with CCN[C@@H](C)Cc1cccc(C(F)(F)F)c1 [Dexfenfluramine hydrochloride], CCC(COC(=O)c1cc(OC)c(OC)c(OC)c1)(c1ccccc1)N(C)C (stereo not shown) [Trimebutine] is higher in ThS net change: 397 for the first, 406 for the second.

Same assay, conditions: library screen, ThS fluorescence net change over 16 h with p-tau

Going from CC1CC(OC(=O)c2ccccc2O)CC(C)(C)C1 (stereo not shown) [Homosalate] to CCCCOc1cc(C(=O)OCCN(CC)CC)ccc1N [Benoxinate hydrochloride], the ThS net change rises from 279 to 312.

Compared with CN1CCCN=C1/C=C/c1cccc(O)c1.CN1CCCN=C1/C=C/c1cccc(O)c1.O=C(O)c1cc2ccccc2c(Cc2c(O)c(C(=O)O)cc3ccccc23)c1O [Oxantel pamoate], N[C@@H](Cc1cc(I)c(Oc2ccc(O)c(I)c2)c(I)c1)C(=O)O [Liothyronine] is higher in ThS net change: 208 for the first, 298 for the second.

Compound CCCCCCCCCCCCCCCC[N+](C)(C)CCN(Cc1ccc(OC)cc1)c1ncccn1 [Thonzonium bromide] has a ThS net change of 312.

Same assay, conditions: p-tau aggregation modulator screen of 1280-compound library; ThS fluorescence net change

First: Cc1ccc(N(CC2=NCCN2)c2cccc(O)c2)cc1 [Phentolamine hydrochloride]
Second: Fc1ccc(C(c2ccc(F)cc2)N2CCN(C/C=C/c3ccccc3)CC2)cc1 [Flunarizine dihydrochloride]
The ThS net change of the first is lower: 334 for the first, 370 for the second.

Going from CN(C)CCOC(c1ccccc1)c1ccccc1 [Diphenhydramine hydrochloride] to O=c1oc2ccccc2c(O)c1Cc1c(O)c2ccccc2oc1=O [Dicumarol], the ThS net change rises from 335 to 363.

Compared with CCN(CC)CCNC(=O)c1cc(S(C)(=O)=O)ccc1OC [Tiapride hydrochloride], CCOC(=O)C1=C(C)NC(C)=C(C(=O)OC)C1c1cccc([N+](=O)[O-])c1 (stereo not shown) [Nitrendipine] is lower in ThS net change: 349 for the first, 344 for the second.

Going from O=C1O[C@H]([C@@H](O)CO)C(O)=C1O [Ascorbic acid] to CC(=O)N(CC(O)CO)c1c(I)c(C(=O)NCC(O)CO)c(I)c(C(=O)NCC(O)CO)c1I (stereo not shown) [Iohexol], the ThS net change falls from 361 to 345.

Compared with CN1C(=O)OC(C)(C)C1=O [Trimethadione], C#C[C@]1(OC(C)=O)CC[C@H]2[C@@H]3CCC4=C[C@@H](OC(C)=O)CC[C@@H]4[C@H]3CC[C@@]21C [Ethynodiol diacetate] is higher in ThS net change: 346 for the first, 355 for the second.

CC(=O)OC(C)C[N+](C)(C)C (stereo not shown) [Methacholine chloride] and CCCCCCCCNC(C)C(O)c1ccc(SC(C)C)cc1 (stereo not shown) [Suloctidil] are the same in ThS net change: 370 for the first, 370 for the second.

Going from Cc1cnc(C(=O)NCCc2ccc(S(=O)(=O)NC(=O)NC3CCCCC3)cc2)cn1 [Glipizide] to Nc1ccc(S(N)(=O)=O)cc1 [Sulfanilamide], the ThS net change falls from 371 to 355.

Compound Nc1nc2[nH]nnc2c(=O)[nH]1 [Azaguanine-8] has a ThS net change of 377.

Same assay, conditions: p-tau aggregation modulator screen of 1280-compound library; […]

Compared with O=P(O)(O)C(Cl)(Cl)P(=O)(O)O [Clodronate], CCn1cc(C(=O)[O-])c(=O)c2ccc(C)nc21.[Na+] [Nalidixic acid sodium salt] is lower in ThS net change: 370 for the first, 339 for the second.

CC(C(=O)[O-])c1cccc(Oc2ccccc2)c1.CC(C(=O)[O-])c1cccc(Oc2ccccc2)c1.O.O.[Ca+2] (stereo not shown) [Fenoprofen calcium salt dihydrate] and Cc1cccc(C)c1N=C1NCCCS1 [Xylazine] are the same in ThS net change: 366 for the first, 366 for the second.

Compared with CCCC(C)C1(CC)C(=O)NC(=O)NC1=O (stereo not shown) [Pentobarbital], O=P1(NCCCl)OCCCN1CCCl (stereo not shown) [Ifosfamide] is higher in ThS net change: 354 for the first, 374 for the second.

Same assay, conditions: p-tau aggregation modulator screen of the compound library, ThS fluorescence net change

First: CO[C@@]1(NC(=O)CSCC#N)C(=O)N2C(C(=O)O)=C(CSc3nnnn3C)CS[C@@H]21 [Cefmetazole sodium salt]
Second: C=CC1=C(C(=O)O)N2C(=O)[C@@H](NC(=O)/C(=N\O)c3csc(N)n3)[C@H]2SC1 [Cefdinir]
The ThS net change of the first is higher: 468 for the first, 454 for the second.

Compared with CN1CCN(c2c(F)cc3c(=O)c(C(=O)O)cn(CCF)c3c2F)CC1 [Fleroxacin], C[C@H](Cc1cc2c(c(C(N)=O)c1)N(CCCO)CC2)NCCOc1ccccc1OCC(F)(F)F [Silodosin] is higher in ThS net change: 424 for the first, 478 for the second.

Going from CCc1cccc(CC)c1NC(=O)CN(CC(=O)O)CC(=O)O [Etifenin] to Nc1c2c(nc3ccccc13)CCCC2O.O=C(O)/C=C\C(=O)O (racemic) [Hydroxytacrine maleate (R,S)], the ThS net change rises from 414 to 423.

First: COc1cc(C(=O)NS(=O)(=O)c2ccccc2C)ccc1Cc1cn(C)c2ccc(NC(=O)OC3CCCC3)cc12 [Zafirlukast]
Second: COC(=O)[C@@H]1[C@H]2C[C@H]3c4[nH]c5ccccc5c4CCN3C[C@@H]2CC[C@@H]1O [Yohimbine hydrochloride]
The ThS net change of the first is higher: 549 for the first, 418 for the second.
